Measured values published in patent US20040110763A1, “Pyrazolopyridine compound and pharmaceutical use thereof” (priority 2000, published 2004).

SMILES | melting point [°C]
CC(C)n1nc(-c2c(-c3ccccc3)nn3ccc(OCCC4CCCCC4)cc23)ccc1=O [Example 23, 5-(2-Cyclohexylethoxy)-3-(3-oxo-2-isopropyl-2,3-dihydropyridazin-6-yl)-2-phenylpyrazolo[1,5-a]pyridine] | 146 to 147
COc1ccn2nc(-c3ccccc3)c(-c3ccc(=O)n(C(C)C)n3)c2c1Br [Example 135, 4-bromo-5-methoxy-3-(3-oxo-2-isopropyl-2,3-dihydropyridazin-6-yl)-2-phenylpyrazolo[1,5-a]pyridine] | 205 to 206
COc1ccn2nc(-c3ccccc3F)c(-c3ccc(=O)n(C)n3)c2c1 [Example 126, 5-Methoxy-3-(3-oxo-2-methyl-2,3-dihydropyridazin-6-yl)-2-(2-fluorophenyl)pyrazolo[1,5-a]pyridine] | 220.5 to 221.5
CC(C)n1nc(-c2c(-c3ccccc3)nn3ccc(OC4CCN(C(=O)N(C)C)CC4)cc23)ccc1=O [Example 56, N,N-Dimethyl-4-[{3-(3-oxo-2-isopropyl-2,3-dihydropyridazin-6-yl)-2-phenylpyrazolo[1,5-a]pyridin-5-yl}oxy]-1-piperidine carboxamide] | 164 to 166
COc1ccc(Oc2ccn3nc(-c4ccccc4)c(-c4ccc(=O)n(C(C)C)n4)c3c2)nc1 [Example 47, 5-[(5-Methoxy-2-pyridinyl)oxy]-3-(3-oxo-2-isopropyl-2,3-dihydropyridazin-6-yl)-2-phenylpyrazolo[1,5-a]pyridine] | 148 to 150
CC(C)NC(=O)c1ccn2nc(-c3ccccc3)c(-c3ccc(=O)n(C(C)C)n3)c2c1 [Example 95, N-Isopropyl-3-(3-oxo-2-isopropyl-2,3-dihydropyridazin-6-yl)-2-phenylpyrazolo[1,5-a]pyridine-5-carboxamide] | 230 to 232
CC(C)n1nc(-c2c(-c3ccccc3)nn3ccc(C(=O)NCCOc4ccccc4)cc23)ccc1=O [Example 92, N-(2-Phenoxyethyl)-3-(3-oxo-2-isopropyl-2,3-dihydropyridazin-6-yl)-2-phenylpyrazolo[1,5-a]pyridine-5-carboxamide] | 156 to 157
CC(C)n1nc(-c2c(-c3ccccc3)nn3ccc(C(=O)NCCN(C)C)cc23)ccc1=O [Example 76, N-[2-(Dimethylamino)ethyl]-3-(3-oxo-2-isopropyl-2,3-dihydropyridazin-6-yl)-2-phenylpyrazolo[1,5-a]pyridine-5-carboxamide] | 157 to 158
CC(C)n1nc(-c2c(-c3ccccc3)nn3ccc(N4CCN(C(=O)c5ccccc5)CC4)cc23)ccc1=O [Example 112, 5-(4-Benzoyl-1-piperazinyl)-3-(3-oxo-2-isopropyl-2,3-dihydropyridazin-6-yl)-2-phenylpyrazolo[1,5-a]pyridine] | 124 to 126
CNC(=O)c1ccn2nc(-c3ccccc3)c(-c3ccc(=O)n(C(C)C)n3)c2c1 [Example 88, N-Methyl-3-(3-oxo-2-isopropyl-2,3-dihydropyridazin-6-yl)-2-phenylpyrazolo[1,5-a]pyridine-5-carboxamide] | 225 to 226
CC(C)n1nc(-c2c(-c3ccccc3)nn3ccc(C(=O)N4CCCCC4)cc23)ccc1=O [Example 89, 5-(1-Piperidinylcarbonyl)-3-(3-oxo-2-isopropyl-2,3-dihydropyridazin-6-yl)-2-phenylpyrazolo[1,5-a]pyridine] | 185 to 186
COc1ccn2nc(-c3ccccc3)c(-c3ccc(=O)n(C4CCOC4)n3)c2c1 (stereo not shown) [Example 118, 5-Methoxy-3-[3-oxo-2-(tetrahydrofuran-3-yl)-2,3-dihydropyridazin-6-yl]-2-phenylpyrazolo[1,5-a]pyridine] | 207 to 208
CC(C)n1nc(-c2c(-c3ccccc3)nn3ccc(OCC(=O)NCCN(C)C)cc23)ccc1=O [Example 58, N-[2-(dimethylamino)ethyl]-2-{[3-(3-oxo-2-isopropyl-2,3-dihydropyridazin-6-yl)-2-phenylpyrazolo[1,5-a]pyridin-5-yl]oxy}acetamide] | 117 to 119
